Measurements as given in article PMC12195982, “Design, Synthesis, and In Vitro Evaluation of 4-(Arylchalcogenyl)methyl)-1H-1,2,3-triazol-1-yl-menadione: Exploring Their Potential Against Tuberculosis” (Pharmaceuticals, 2025).
Converted amounts (≈) assume the structure as drawn.

System: INH- and RIF-resistant Mtb (strain T113/09, KatG and rpoB mutation)
Assay type: cell-based, Mycobacterium tuberculosis

In the case of `CC1=C(C(c2ccccc2)n2cc(C[Se]c3ccccc3)nn2)C(=O)c2ccccc2C1=O` (stereo not shown) [Compound 9g, 2-methyl-3-(phenyl(4-((phenylselanyl)methyl)-1H-1,2,3-triazolyl)methyl)naphthalene-1,4-dione], the “MIC INH/RIFR-Mtb” value is reported as ≤3 µg/mL and the “fold more potent than INH” value is reported as “at least 7 fold”.

For `CC1=C(Cn2cc(C[Se]c3cccc(C(F)(F)F)c3)nn2)C(=O)c2ccccc2C1=O` [Compound 9c], the “MIC INH/RIFR-Mtb” value was >99 µg/mL.

With `CC1=C(C(c2ccc(C)cc2)n2cc(C[Se]c3ccccc3)nn2)C(=O)c2ccccc2C1=O` (stereo not shown) [Compound 9h, 2-methyl-3-((4-((phenylselanyl)methyl)-1H-1,2,3-triazolyl)(p-methylphenyl)methyl) naphthalene-1,4-dione] the “MIC INH/RIFR-Mtb” value was ≤3 µg/mL and the “fold more potent than INH” value was “at least 7 fold”.

For `CC1=C(Cn2cc(C[Se]c3ccc(Cl)cc3)nn2)C(=O)c2ccccc2C1=O` [Compound 9b, 2-((4-(((4-chlorophenyl)selanyl)methyl)-1H-1,2,3-triazolyl)methyl)-3-methylnaphthalene-1,4-dione], the “MIC INH/RIFR-Mtb” value was ≤3 µg/mL and the “fold more potent than INH” value was “at least 7 fold”.

In the case of `NNC(=O)c1ccncc1` [INH, isoniazid, reference compound], the “MIC INH/RIFR-Mtb” value is reported as 8 µg/mL (≈ 58.3 µM).

With `CC1=C(Cn2cc(C[Se]c3ccccc3)nn2)C(=O)c2ccccc2C1=O` [Compound 9a, 2-methyl-3-((4-((phenylselanyl)methyl)-1H-1,2,3-triazolyl)methyl)naphthalene-1,4-dione] the “MIC INH/RIFR-Mtb” value was 3 µg/mL (≈ 7.1 µM) and the “fold more potent than INH” value was “at least 7 fold”.
